According to PubChem BioAssay AID2060327 (Molecular Pharmacology Branch, DTP, NCI, 2025):
“And” between values parts separate entries of the source, which are not always exact repeats. Equal entries are not always repeated.

Tested on: PC-3 multi-cell spheroids, viability
Assay: Anticancer human tumor PC-3 cell line growth inhibition [IpAb];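 also: spheroids exposed to compounds for 7 days before readout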;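 as to viability, T/C: 100% = DMSO vehicle control wells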
Settings: for viability, T/C: stronger effect = lower value
Method in brief: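 Spheroids of 60% malignant cells, 25% HUVEC and 15% MSC were exposed to targeted agents combined with ipatasertib or abemaciclib. Doses started at or near clinical Cmax (10 microM when unknown) and fell in half-log steps.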

[1] = curve of first compound, second compound 0.1 µM
[2] = curve of first compound, second compound 0.316 µM
[3] = curve of first compound, second compound 1 µM
[4] = curve of first compound, second compound 3.16 µM
[5] = curve of first compound, second compound 10 µM
[6] = second compound 0.1 µM, first compound 0.0316 µM
[7] = second compound 0.1 µM, first compound 0.1 µM
[8] = second compound 0.1 µM, first compound 0.316 µM
[9] = second compound 0.1 µM, first compound 1 µM
[10] = second compound 0.1 µM, first compound 3.16 µM
[11] = second compound 0.1 µM, first compound 10 µM
[12] = second compound 0.316 µM, first compound 0.0316 µM
[13] = second compound 0.316 µM, first compound 0.1 µM
[14] = second compound 0.316 µM, first compound 0.316 µM
[15] = second compound 0.316 µM, first compound 1 µM
[16] = second compound 0.316 µM, first compound 3.16 µM
[17] = second compound 0.316 µM, first compound 10 µM
[18] = second compound 1 µM, first compound 0.0316 µM
[19] = second compound 1 µM, first compound 0.1 µM
[20] = second compound 1 µM, first compound 0.316 µM
[21] = second compound 1 µM, first compound 1 µM
[22] = second compound 1 µM, first compound 3.16 µM
[23] = second compound 1 µM, first compound 10 µM
[24] = second compound 3.16 µM, first compound 0.0316 µM
[25] = second compound 3.16 µM, first compound 0.1 µM
[26] = second compound 3.16 µM, first compound 0.316 µM
[27] = second compound 3.16 µM, first compound 1 µM
[28] = second compound 3.16 µM, first compound 3.16 µM
[29] = second compound 3.16 µM, first compound 10 µM
[30] = second compound 10 µM, first compound 0.0316 µM
[31] = second compound 10 µM, first compound 0.1 µM
[32] = second compound 10 µM, first compound 0.316 µM
[33] = second compound 10 µM, first compound 1 µM
[34] = second compound 10 µM, first compound 3.16 µM
[35] = second compound 10 µM, first compound 10 µM
[36] = curve of first compound, second compound 0.01 µM
[37] = curve of first compound, second compound 0.0316 µM
[38] = second compound 0.01 µM, first compound 0.0316 µM
[39] = second compound 0.01 µM, first compound 0.1 µM
[40] = second compound 0.01 µM, first compound 0.316 µM
[41] = second compound 0.01 µM, first compound 1 µM
[42] = second compound 0.01 µM, first compound 3.16 µM
[43] = second compound 0.01 µM, first compound 10 µM
[44] = second compound 0.0316 µM, first compound 0.0316 µM
[45] = second compound 0.0316 µM, first compound 0.1 µM
[46] = second compound 0.0316 µM, first compound 0.316 µM
[47] = second compound 0.0316 µM, first compound 1 µM
[48] = second compound 0.0316 µM, first compound 3.16 µM
[49] = second compound 0.0316 µM, first compound 10 µM

SMILES: C=CCn1c(=O)c2cnc(Nc3ccc(N4CCN(C)CC4)cc3)nc2n1-c1cccc(C(C)(C)O)n1 + CC(C)NCC(C(=O)N1CCN(c2ncnc3c2C(C)CC3O)CC1)c1ccc(Cl)cc1
- IC50 [1]: 0.114 µM
- IC50 [2]: < 0.0316 µM
- IC50 [3]: < 0.0316 µM
- IC50 [4]: < 0.0316 µM
- IC50 [5]: < 0.0316 µM
- viability, T/C [6]: 73.4%
- viability, T/C [7]: 48.6%
- viability, T/C [8]: 42.4%
- viability, T/C [9]: 20.5%
- viability, T/C [10]: 19.6%
- viability, T/C [11]: 21.1%
- viability, T/C [12]: 41.3%
- viability, T/C [13]: 31.3%
- viability, T/C [14]: 15.4%
- viability, T/C [15]: 14.1%
- viability, T/C [16]: 13.8%
- viability, T/C [17]: 17.2%
- viability, T/C [18]: 20.4%
- viability, T/C [19]: 16.2%
- viability, T/C [20]: 10.6%
- viability, T/C [21]: 9.67%
- viability, T/C [22]: 9.62%
- viability, T/C [23]: 11.5%
- viability, T/C [24]: 14.3%
- viability, T/C [25]: 11%
- viability, T/C [26]: 8.81%
- viability, T/C [27]: 7.7%
- viability, T/C [28]: 8.01%
- viability, T/C [29]: 7.89%
- viability, T/C [30]: 13.1%
- viability, T/C [31]: 11.7%
- viability, T/C [32]: 8.4%
- viability, T/C [33]: 6.86%
- viability, T/C [34]: 7.49%
- viability, T/C [35]: 7.22%

SMILES: CCCS(=O)(=O)Nc1ccc(F)c(C(=O)c2c[nH]c3ncc(-c4ccc(Cl)cc4)cc23)c1F + CCN1CCN(Cc2ccc(Nc3ncc(F)c(-c4cc(F)c5nc(C)n(C(C)C)c5c4)n3)nc2)CC1
- IC50 [36]: 9.02 µM
- IC50 [37]: 6.6 µM
- IC50 [1]: 8.63 µM
- IC50 [2]: 4.29 µM
- IC50 [3]: 3.41 µM
- viability, T/C [38]: 92.5%
- viability, T/C [39]: 96.8%
- viability, T/C [40]: 104%
- viability, T/C [41]: 99.5%
- viability, T/C [42]: 76.3%
- viability, T/C [43]: 47.4%
- viability, T/C [44]: 65%
- viability, T/C [45]: 79.1%
- viability, T/C [46]: 71.7%
- viability, T/C [47]: 77.8%
- viability, T/C [48]: 69.3%
- viability, T/C [49]: 38.8%
- viability, T/C [6]: 57.3%
- viability, T/C [7]: 57.4%
- viability, T/C [8]: 68.6%
- viability, T/C [9]: 64.1%
- viability, T/C [10]: 61.9%
- viability, T/C [11]: 34.9%
- viability, T/C [12]: 64.7%
- viability, T/C [13]: 64%
- viability, T/C [14]: 68%
- viability, T/C [15]: 62.4%
- viability, T/C [16]: 57.2%
- viability, T/C [17]: 30.6%
- viability, T/C [18]: 61.5%
- viability, T/C [19]: 58.5%
- viability, T/C [20]: 65.3%
- viability, T/C [21]: 54.6%
- viability, T/C [22]: 52.6%
- viability, T/C [23]: 30.6%

SMILES: Cn1cnc2c(F)c(Nc3ccc(Br)cc3Cl)c(C(=O)NOCCO)cc21 + CCN1CCN(Cc2ccc(Nc3ncc(F)c(-c4cc(F)c5nc(C)n(C(C)C)c5c4)n3)nc2)CC1
- IC50 [36]: > 3 µM
- IC50 [37]: 1.95 µM
- IC50 [1]: 1.58 µM
- IC50 [2]: 0.594 µM
- IC50 [3]: 0.0294 µM
- viability, T/C (second compound 0.01 µM, first compound 0.00949 µM): 95%
- viability, T/C (second compound 0.01 µM, first compound 0.03 µM): 86.2%
- viability, T/C (second compound 0.01 µM, first compound 0.0949 µM): 91.7%
- viability, T/C (second compound 0.01 µM, first compound 0.3 µM): 87.7%
- viability, T/C (second compound 0.01 µM, first compound 0.949 µM): 79.7%
- viability, T/C (second compound 0.01 µM, first compound 3 µM): 59.8%
- viability, T/C (second compound 0.0316 µM, first compound 0.00949 µM): 74.1%
- viability, T/C (second compound 0.0316 µM, first compound 0.03 µM): 72.1%
- viability, T/C (second compound 0.0316 µM, first compound 0.0949 µM): 62.2%
- viability, T/C (second compound 0.0316 µM, first compound 0.3 µM): 71.8%
- viability, T/C (second compound 0.0316 µM, first compound 0.949 µM): 57%
- viability, T/C (second compound 0.0316 µM, first compound 3 µM): 45%
- viability, T/C (second compound 0.1 µM, first compound 0.00949 µM): 56%
- viability, T/C (second compound 0.1 µM, first compound 0.03 µM): 58.3%
- viability, T/C (second compound 0.1 µM, first compound 0.0949 µM): 58.2%
- viability, T/C (second compound 0.1 µM, first compound 0.3 µM): 49.2%
- viability, T/C (second compound 0.1 µM, first compound 0.949 µM): 53.7%
- viability, T/C (second compound 0.1 µM, first compound 3 µM): 47.8%
- viability, T/C (second compound 0.316 µM, first compound 0.00949 µM): 60.2%
- viability, T/C (second compound 0.316 µM, first compound 0.03 µM): 50.5%
- viability, T/C (second compound 0.316 µM, first compound 0.0949 µM): 53.6%
- viability, T/C (second compound 0.316 µM, first compound 0.3 µM): 54.6%
- viability, T/C (second compound 0.316 µM, first compound 0.949 µM): 48.1%
- viability, T/C (second compound 0.316 µM, first compound 3 µM): 41.5%
- viability, T/C (second compound 1 µM, first compound 0.00949 µM): 53.2%
- viability, T/C (second compound 1 µM, first compound 0.03 µM): 47.3%
- viability, T/C (second compound 1 µM, first compound 0.0949 µM): 42.6%
- viability, T/C (second compound 1 µM, first compound 0.3 µM): 52.1%
- viability, T/C (second compound 1 µM, first compound 0.949 µM): 57.2%
- viability, T/C (second compound 1 µM, first compound 3 µM): 36.5%

SMILES: C=CC(=O)N1CCN(c2nc(=O)n(-c3c(C)ccnc3C(C)C)c3nc(-c4c(O)cccc4F)c(F)cc23)C(C)C1 (configuration not stated)
- viability, T/C (compound 0.0316 µM): 108% and 98.7%
- viability, T/C (compound 0.1 µM): 100% and 108%
- viability, T/C (compound 0.316 µM): 90.2% and 99.7%
- viability, T/C (compound 1 µM): 110% and 112%
- viability, T/C (compound 3.16 µM): 122%
- viability, T/C (compound 10 µM): 79.6% and 119%
- IC50 (curve of compound): > 10 µM

SMILES: CC1(C)CCC(CN2CCN(c3ccc(C(=O)NS(=O)(=O)c4ccc(NCC5CCOCC5)c([N+](=O)[O-])c4)c(Oc4cnc5[nH]ccc5c4)c3)CC2)=C(c2ccc(Cl)cc2)C1 + CCN1CCN(Cc2ccc(Nc3ncc(F)c(-c4cc(F)c5nc(C)n(C(C)C)c5c4)n3)nc2)CC1
- IC50 [36]: 5.52 µM
- IC50 [37]: 4.54 µM
- IC50 [1]: 4.19 µM
- IC50 [2]: 3.98 µM
- IC50 [3]: 1.28 µM
- viability, T/C [38]: 102%
- viability, T/C [39]: 101%
- viability, T/C [40]: 107%
- viability, T/C [41]: 98.1%
- viability, T/C [42]: 93.2%
- viability, T/C [43]: 4%
- viability, T/C [44]: 73.1%
- viability, T/C [45]: 71.5%
- viability, T/C [46]: 73.6%
- viability, T/C [47]: 64.8%
- viability, T/C [48]: 71.4%
- viability, T/C [49]: 4.41%
- viability, T/C [6]: 65.9%
- viability, T/C [7]: 66%
- viability, T/C [8]: 58.7%
- viability, T/C [9]: 64.2%
- viability, T/C [10]: 70.1%
- viability, T/C [11]: 3.35%
- viability, T/C [12]: 62.9%
- viability, T/C [13]: 70.4%
- viability, T/C [14]: 66.3%
- viability, T/C [15]: 61.7%
- viability, T/C [16]: 61.9%
- viability, T/C [17]: 3.28%
- viability, T/C [18]: 60.8%
- viability, T/C [19]: 60.2%
- viability, T/C [20]: 54.3%
- viability, T/C [21]: 51.8%
- viability, T/C [22]: 41.5%
- viability, T/C [23]: 4.98%

SMILES: Cn1ncc(Cl)c1-c1cc(C(=O)NC(CN)Cc2cccc(F)c2)sc1Cl (configuration not stated) + CC(C)NCC(C(=O)N1CCN(c2ncnc3c2C(C)CC3O)CC1)c1ccc(Cl)cc1
- IC50 [1]: 0.0811 µM
- IC50 [2]: < 0.0316 µM
- IC50 [3]: < 0.0316 µM
- IC50 [4]: < 0.0316 µM
- IC50 [5]: < 0.0316 µM
- viability, T/C [6]: 59.9%
- viability, T/C [7]: 48.8%
- viability, T/C [8]: 34.3%
- viability, T/C [9]: 19.8%
- viability, T/C [10]: 16.9%
- viability, T/C [11]: 0.15%
- viability, T/C [12]: 35.7%
- viability, T/C [13]: 40.3%
- viability, T/C [14]: 29.2%
- viability, T/C [15]: 17.7%
- viability, T/C [16]: 14.1%
- viability, T/C [17]: 0.17%
- viability, T/C [18]: 24.3%
- viability, T/C [19]: 24.5%
- viability, T/C [20]: 19.9%
- viability, T/C [21]: 16.4%
- viability, T/C [22]: 15.8%
- viability, T/C [23]: 0.14%
- viability, T/C [24]: 15.2%
- viability, T/C [25]: 15.8%
- viability, T/C [26]: 15.5%
- viability, T/C [27]: 16%
- viability, T/C [28]: 15.3%
- viability, T/C [29]: 0.26%
- viability, T/C [30]: 13.6%
- viability, T/C [31]: 14.1%
- viability, T/C [32]: 13.6%
- viability, T/C [33]: 14.6%
- viability, T/C [34]: 13.9%
- viability, T/C [35]: 0.16%
